# Measurements reported in ChEMBL document CHEMBL1123838, “Analgesic dipeptide derivatives. 3. Synthesis and structure-activity relationships of o-nitrophenyl-modified analogues of the analgesic compound H-Lys-Trp(NPS)-OMe” (1987).
# Peptide text beside a SMILES is read from it.
# How the values were obtained:
# Type in all cases: functional
# Mus musculus [1] = assay: Tested for analgesic activity, using Tail-Flick test in Mice at the dose of 2.5 ug/mouse administered icv after 60 min.
# Mus musculus [2] = assay: Tested for analgesic activity, using Tail-Flick test in Mice at the dose of 2.5 ug/mouse administered icv after 5 min.
# Mus musculus [3] = assay: Tested for analgesic activity, using Tail-Flick test in Mice at the dose of 0.5 ug/mouse administered icv after 30 min.
# Mus musculus [4] = assay: Tested for analgesic activity, using Tail-Flick test in Mice at the dose of 1 ug/mouse administered icv after 5 min.
# Mus musculus [5] = assay: Tested for analgesic activity, using Tail-Flick test in Mice at the dose of 2.5 ug/mouse administered icv after 30 min.
# Mus musculus [6] = assay: Tested for analgesic activity, using Tail-Flick test in Mice at the dose of 1 ug/mouse administered icv after 60 min.
# Mus musculus [7] = assay: Tested for analgesic activity, using Tail-Flick test in Mice at the dose of 0.5 ug/mouse administered icv after 5 min.
# Mus musculus [8] = assay: Tested for analgesic activity, using Tail-Flick test in Mice at the dose of 0.5 ug/mouse administered icv after 60 min.
# Mus musculus [9] = assay: Tested for analgesic activity, using Tail-Flick test in Mice at the dose of 1 ug/mouse administered icv after 30 min.
# Mus musculus [10] = assay: Tested for analgesic activity, using Tail-Flick test in Mice at the dose of 0.1 ug/mouse administered icv after 5 min.
# Mus musculus [11] = assay: Tested for analgesic activity, using Tail-Flick test in Mice at the dose of 0.1 ug/mouse administered icv after 30 min.
# Mus musculus [12] = assay: Tested for analgesic activity, using Tail-Flick test in Mice at the dose of 0.1 ug/mouse administered icv after 60 min.
# Mus musculus [13] = assay: Tested for analgesic activity, using Tail-Flick test in Mice at the dose of […] administered icv after 30 min
# Mus musculus [14] = assay: Tested for analgesic activity, using Tail-Flick test in Mice at the dose of 0.5 ug/mouse administered icv after 5 min
SMILES,Change (Mus musculus [1]),Change (Mus musculus [2]),Change (Mus musculus [3]),Change (Mus musculus [4]),Change (Mus musculus [5]),Change (Mus musculus [6]),Change (Mus musculus [7]),Change (Mus musculus [8]),Change (Mus musculus [9]),Change (Mus musculus [10]),Change (Mus musculus [11]),Change (Mus musculus [12]),Change (Mus musculus [13]),Change (Mus musculus [14])
COC(=O)CCSn1cc(CC(NC(=O)C(N)CCCCN)C(=O)OC)c2ccccc21 (configuration not stated),0%,16%,10%,15%,15%,9%,11%,9%,7%,,,,,
COC(=O)C(Cc1cn(Sc2ccccc2NC(C)=O)c2ccccc12)NC(=O)C(N)CCCCN (configuration not stated),10%,27%,-2%,25%,26%,15%,0%,5%,20%,,,,,
CSCC[C@H](N)C(=O)N[C@@H](C)C(=O)NCC(=O)NCC(=O)N[C@@H](Cc1ccc(O)cc1)C(N)=O (H-MAGGY-NH2),,,,210%,,45%,,35%,118%,40%,26%,-7%,76%,122%
